Reference: patent US5171751A, “Benzofuran/benzofuranalkyl-N-terminal amino hydroxy” (G. D. Searle & Co., priority 1991, dated 1992)
Square brackets hold non-standard residues; d marks the D form. Peptide text beside a SMILES is read from it. * marks the point of attachment. Sta = CC(C)C[C@H](N)[C@@H](O)CC(=O)O; Isovaleryl = CC(C)CC(=O)*

Key:
hog renin = details: after injection of hog renin into nephrectomized rats; cited from earlier work
renin = details: cited from earlier work
acid proteases = details: cited from earlier work
pepsin = details: cited from earlier work
cathepsin D = details: cited from earlier work
human renin = target: T1, human renin (Homo sapiens, UniProt P00797); experiment: In vitro human renin inhibition (angiotensin I determined by radioimmunoassay); format: biochemical; details: 37° C., pH 7.4, two hours
T1 construct: purchased National Institute for Biological Standards, London
T1 sequence (P00797 67-406): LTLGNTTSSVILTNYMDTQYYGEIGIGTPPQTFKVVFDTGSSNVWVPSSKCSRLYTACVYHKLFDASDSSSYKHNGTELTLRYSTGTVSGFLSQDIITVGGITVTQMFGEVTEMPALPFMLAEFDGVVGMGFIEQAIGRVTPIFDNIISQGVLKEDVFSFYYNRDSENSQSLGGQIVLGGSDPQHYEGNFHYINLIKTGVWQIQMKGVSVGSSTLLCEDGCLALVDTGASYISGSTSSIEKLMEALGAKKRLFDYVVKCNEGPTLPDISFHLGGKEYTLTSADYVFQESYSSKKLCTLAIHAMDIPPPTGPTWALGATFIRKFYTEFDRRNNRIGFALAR
Description: Compounds of Formula I were evaluated as inhibitors of human renin in an in vitro assay. This human renin inhibition test has been previously described in detail Papaioannou et al., Clinical and Experimental Hypertension, A7(9), 1243-1257 (1985)]. Human renin was obtained from the National Institute for Biological Standards, London. An incubation mixture was prepared containing in a total volume of 0.25 mL 100 mM Tris-acetate buffer at pH 7.4, 25×10^-6 Goldblatt units of renin, 0.05mL of plasma from human volunteers taking oral contraceptives, 6.0 mM sodium EDTA, 2.4 mM phenylmethyl sulfonyl fluoride, 1.5 mM 8-hydroxyquinoline, 0.4 mg/mL BSA, and 0.024 mg/mL neomycin sulfate. This mixture was incubated for two hours at 37° C. in the presence or absence of renin inhibitors. The produced angiotensin I was determined by radioimmunoassay (New England Nuclear kit). Test compounds to be assayed were dissolved in DMSO and diluted with 100mM Tris-acetate buffer at pH 7.4 containing 0.5% BSA to the appropriate concentration. The final concentration of organic solvent in the reaction mixture was less than 1%. Control incubations at 37° C. were used to correct for effects of organic solvent on renin activity.

IC50 (human renin)	Structure (SMILES)	reduction of blood pressure in vivo (hog renin)	inhibitor of renin (renin)	inhibiting acid proteases in addition to renin (acid proteases)	inhibitor of pepsin (pepsin)	inhibitor of cathepsin D (cathepsin D)
–	CC(C)CC(=O)N[C@H](C(=O)N[C@H](C(=O)N[C@@H](CC(C)C)[C@@H](O)CC(=O)N[C@@H](C)C(=O)N[C@@H](CC(C)C)[C@@H](O)CC(=O)O)C(C)C)C(C)C [pepstatin] (Isovaleryl-VV[Sta]A[Sta]-OH)	reduce blood pressure in vivo	inhibitor	inhibiting acid proteases in addition to renin	inhibitor	inhibitor
430 nM	CC(C)C[C@H](O)[C@H](O)[C@H](CC1CCCCC1)NC(=O)[C@H](C)CNC(=O)CCc1c[nH]c2ccccc12 [Example 22, N-[3-[[1S, 1R^* -(cyclohexylmethyl)-2S^*, 3R^* -dihydroxy-5-methylhexyl]amino]-2S^* -methyl-3-oxopropyl]-1H-indole-3-propanamide]	–	–	–	–	–
